These are literature values, as cited in patent publication US9827281B2, “Medication dispensing system” (priority 2015, dated 2017).

Data set [1] has as its system estrogen receptor-positive and estrogen receptor-negative breast cancer cell lines. The following applies: inducing apoptosis in a concentration-dependent manner.
The test system of data set [2] is nontumorigenic mammary cells.
Assay in data set [3]: not given
This is another data set of the same source.

In data set [4] the target is T1, androgen receptor in the prostate gland (Homo sapiens, UniProt P10275).
T1 construct: host or cells: prostate gland
T1 sequence (P10275 1-920): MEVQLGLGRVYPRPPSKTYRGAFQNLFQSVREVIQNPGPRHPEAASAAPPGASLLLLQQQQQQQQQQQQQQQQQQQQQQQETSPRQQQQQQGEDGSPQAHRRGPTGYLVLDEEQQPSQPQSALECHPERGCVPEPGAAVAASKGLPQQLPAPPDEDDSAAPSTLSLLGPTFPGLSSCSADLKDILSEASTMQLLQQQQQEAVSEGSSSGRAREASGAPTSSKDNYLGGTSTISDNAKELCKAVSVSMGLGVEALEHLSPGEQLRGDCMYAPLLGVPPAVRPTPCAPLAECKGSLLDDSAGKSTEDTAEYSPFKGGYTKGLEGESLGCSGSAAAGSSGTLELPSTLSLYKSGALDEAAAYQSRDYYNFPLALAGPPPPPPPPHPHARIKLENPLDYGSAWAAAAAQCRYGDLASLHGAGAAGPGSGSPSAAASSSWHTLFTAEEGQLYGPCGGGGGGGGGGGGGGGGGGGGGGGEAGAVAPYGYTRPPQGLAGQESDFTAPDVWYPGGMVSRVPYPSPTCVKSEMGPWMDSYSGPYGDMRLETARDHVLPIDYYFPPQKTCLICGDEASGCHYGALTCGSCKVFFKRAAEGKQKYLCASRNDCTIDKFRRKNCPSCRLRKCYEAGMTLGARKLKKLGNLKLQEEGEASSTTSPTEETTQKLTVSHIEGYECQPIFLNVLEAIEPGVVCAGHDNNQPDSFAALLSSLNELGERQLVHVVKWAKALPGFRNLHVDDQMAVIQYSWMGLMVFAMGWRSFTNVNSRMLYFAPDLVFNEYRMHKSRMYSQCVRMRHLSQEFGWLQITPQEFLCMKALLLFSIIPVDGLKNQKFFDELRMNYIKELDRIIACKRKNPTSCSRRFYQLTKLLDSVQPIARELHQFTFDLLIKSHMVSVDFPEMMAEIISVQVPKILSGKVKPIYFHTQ

The target of a further data set is CB1 receptor (Homo sapiens, UniProt P21554).
Sequence of CB1 receptor (P21554 whole entry): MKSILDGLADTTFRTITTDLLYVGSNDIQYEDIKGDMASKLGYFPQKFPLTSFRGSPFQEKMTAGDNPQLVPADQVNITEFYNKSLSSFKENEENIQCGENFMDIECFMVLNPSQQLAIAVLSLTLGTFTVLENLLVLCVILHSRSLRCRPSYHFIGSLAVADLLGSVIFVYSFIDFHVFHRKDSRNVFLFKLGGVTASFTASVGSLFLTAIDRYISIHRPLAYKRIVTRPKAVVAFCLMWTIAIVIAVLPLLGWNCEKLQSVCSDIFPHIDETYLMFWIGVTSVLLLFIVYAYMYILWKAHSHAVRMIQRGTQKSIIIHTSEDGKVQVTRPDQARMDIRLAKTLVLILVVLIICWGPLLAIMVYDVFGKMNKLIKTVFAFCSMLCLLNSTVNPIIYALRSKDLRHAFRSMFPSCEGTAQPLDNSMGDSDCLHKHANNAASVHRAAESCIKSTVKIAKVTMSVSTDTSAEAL

As to vitamin E, the “reduction in breast cancer incidence” value (pre-menopausal women with a family history of breast cancer, highest quantity of vitamin E consumed) was 43%. Further, the “risk reduction of breast cancer” value (women without a family history of breast cancer) is 16%.

Consider `C=C(C)[C@@H]1CCC(C)=C[C@H]1c1c(O)cc(CCCCC)cc1O` [CBD, Cannabidiol], for which the “survival of breast cancer cell lines” value in data set [1] was “inhibited the survival”. Further, the “effect on nontumorigenic mammary cells” value in data set [2] is recorded as “little effect”. Also, the “affinity to cannabinoid receptors” value with cannabinoid receptors is “low affinity”.

Take `CCCCCc1cc(O)c2c(c1)OC(C)(C)[C@@H]1CCC(C)=C[C@@H]21` [THC, Tetrahydrocannabinol]: in data set [3] (cold-pressor test after administration), the pain sensitivity result was “decreased pain sensitivity”. The “time after administration at which pain reduction effects were felt (average)” value in data set [3] (cold-pressor test, dronabinol oral capsules 10 mg or 20 mg) was 180 min. Moreover, the duration of effects entry in data set [3] (compared with smoked marijuana) was “lasted longer than smoked marijuana”. In addition, the apoptosis result with prostate cell line, PC-3 is recorded as “causes apoptosis”. Besides, in data set [4], the “specific binding of dihydroxytestosterone to the androgen receptor” value was “inhibits specific binding”.

Take `CCCc1cc(O)c2c(c1)OC(C)(C)[C@@H]1CCC(C)=C[C@@H]21` [THCV, Tetrahydrocannabivarin]: the “CB1 receptor mode of action” value on CB1 receptor was “antagonist”.
